Consider 14 molecules from patent US4335247A, “Novel nitrosourea derivatives and process for their production” (Kowa Co., Ltd., priority 1980, dated 1982).

Data set [1] in a line: Acute toxicity (median lethal dose, intraperitoneal). Conditions: mouse, in vivo, ip; intraperitoneal injection, ddy mice, Litchfield-Wilcoxon method. How it is done:
The median lethal dose (LD50) of each of the test compounds was determined by the Litchfield-Wilcoxon method after the intraperitoneal injection of the compound into ddy mice.

Another data set deals with P388 cancer cell. In words: Anti-tumor test, P388-inoculated mice (survival effect). Type of data set: in vivo. Conditions: Mus musculus, P388, ip, intraperitoneal, CDF1 mice; for response vs control in vivo at 12.5 mg/kg / responders at 12.5 mg/kg: 12.5 mg/Kg/day; for response vs control in vivo at 25 mg/kg / responders at 25 mg/kg: 25 mg/Kg/day; for response vs control in vivo at 50 mg/kg / responders at 50 mg/kg: 50 mg/Kg/day. How it is done: Each experimental group was composed of six CDF1 mice. The mice were inoculated intraperitoneally with 10^6 P388 cancer cell, and the test compounds suspended in a gum arabic were administered intraperitoneally to the animals 24 hours and 5 days, respectively, after the inoculation. The survival effect of each of the compounds was expressed by the percentage of the survival days of the treated animals in each group relative to those of the control animals.

Where [2] appears, read: 24 hours and 5 days after inoculation, read-out: Survival Effect T/C.
Where [3] appears, read: of six mice, read-out: Cure (converted).
Setting [4] is: of six mice, read-out: Tumored Survivors (converted).
The mark [5] stands for this setting: 100 mg/Kg/day, 24 hours and 5 days after inoculation, read-out: Survival Effect T/C.

Read-outs that look alike come from different tables or passages of the source.

The term LD50 denotes the dose expected to kill half of the subjects tested. Low values mean greater toxicity, high ones lower toxicity. In turn, `C[C@@H](O)[C@H](NC(=O)N(CCCl)N=O)C(=O)Nc1nncs1` (relative stereo) [L] returned an LD50 in data set [1] of 65 mg/kg. In the data set on P388 cancer cell (setting [2]), the response vs control in vivo at 12.5 mg/kg came out at 153%, the response vs control in vivo at 25 mg/kg is 93% and the response vs control in vivo at 50 mg/kg is 81%. Besides, in the data set with P388 cancer cell (setting [3]), the responders at 25 mg/kg was 16.7%.

For the molecule `O=NN(CCCl)C(=O)Nc1nncs1` [A], in data set [1], the LD50 stood at 78 mg/kg. In the data set on P388 cancer cell (setting [2]), the response vs control in vivo at 12.5 mg/kg was determined as 170%, the response vs control in vivo at 25 mg/kg stood at 173% and the response vs control in vivo at 50 mg/kg is 172%.

In data set [1], `CC(C)[C@H](NC(=O)N(CCCl)N=O)C(=O)O` [B] showed an LD50 of 72 mg/kg. Besides, in the data set on P388 cancer cell (setting [2]), the response vs control in vivo at 25 mg/kg amounted to 230% and the response vs control in vivo at 50 mg/kg was 297%. In the data set on P388 cancer cell (setting [3]), the responders at 50 mg/kg is 16.7%. Further, the responders at 50 mg/kg with P388 cancer cell (setting [4]) was 16.7%.

Regarding `CC(C)[C@H](NC(=O)N(CCCl)N=O)C(=O)Nc1nncs1` [D], the LD50 in data set [1] was 49 mg/kg. For the same molecule, in the data set with P388 cancer cell (6.25 mg/Kg/day, 24 hours and 5 days after inoculation, read-out: Survival Effect T/C), the response vs control in vivo at 6.25 mg/kg worked out at 223%. In the data set on P388 cancer cell (setting [2]), the response vs control in vivo at 12.5 mg/kg was 281% and the response vs control in vivo at 25 mg/kg is 291%. Also, the responders at 25 mg/kg in the data set with P388 cancer cell (setting [3]) was 83.3%.

The molecule `CC(C)CC(NC(=O)N(CCCl)N=O)C(=O)Nc1nncs1` (stereo not drawn) [E] showed an LD50 in data set [1] of 82 mg/kg. For the same molecule, in the data set with P388 cancer cell (setting [2]), the response vs control in vivo at 12.5 mg/kg worked out at 220%, the response vs control in vivo at 25 mg/kg was determined as 303% and the response vs control in vivo at 50 mg/kg was determined as 303%. Besides, in the data set with P388 cancer cell (setting [3]), the responders at 25 mg/kg is 33.3% and the responders at 50 mg/kg was 83.3%. Further, in the data set with P388 cancer cell (setting [4]), the responders at 25 mg/kg was 16.7%.

`CC(C)C[C@H](NC(=O)N(CCCl)N=O)C(=O)Nc1nncs1` [F]: the LD50 in data set [1] came out at 85 mg/kg. For the same molecule, in the data set with P388 cancer cell (setting [2]), the response vs control in vivo at 12.5 mg/kg came to 292% and the response vs control in vivo at 25 mg/kg worked out at 303%. Also, in the data set with P388 cancer cell (setting [3]), the responders at 12.5 mg/kg is 16.7% and the responders at 25 mg/kg was 50%. For the same molecule, in the data set on P388 cancer cell (setting [4]), the responders at 12.5 mg/kg is 16.7% and the responders at 25 mg/kg was 33.3%.

On to `CC[C@H](C)[C@H](NC(=O)N(CCCl)N=O)C(=O)Nc1nncs1` [G], for which, in data set [1], the LD50 was determined as 78 mg/kg. Moreover, in the data set with P388 cancer cell (setting [2]), the response vs control in vivo at 12.5 mg/kg is 247%, the response vs control in vivo at 25 mg/kg turned out to be 297% and the response vs control in vivo at 50 mg/kg was 297%. Further, in the data set with P388 cancer cell (setting [3]), the responders at 12.5 mg/kg was 16.7%, the responders at 25 mg/kg was 16.7% and the responders at 50 mg/kg was 50%. In the data set on P388 cancer cell (setting [4]), the responders at 25 mg/kg was 50% and the responders at 50 mg/kg was 33.3%.

In data set [1], `CSCC[C@H](NC(=O)N(CCCl)N=O)C(=O)Nc1nncs1` [H] came in with an LD50 of 67 mg/kg. Besides, in the data set on P388 cancer cell (setting [2]), the response vs control in vivo at 12.5 mg/kg was found to be 235%, the response vs control in vivo at 25 mg/kg was found to be 294% and the response vs control in vivo at 50 mg/kg was 294%. Further, in the data set with P388 cancer cell (setting [3]), the responders at 12.5 mg/kg was 16.7%, the responders at 25 mg/kg is 50% and the responders at 50 mg/kg was 83.3%. Also, in the data set with P388 cancer cell (setting [4]), the responders at 25 mg/kg was 33.3% and the responders at 50 mg/kg was 16.7%.

In turn, `O=NN(CCCl)C(=O)N[C@@H](C(=O)Nc1nncs1)c1ccccc1` [I] registered an LD50 in data set [1] of 69 mg/kg. Besides, in the data set with P388 cancer cell (setting [2]), the response vs control in vivo at 12.5 mg/kg came to 297%, the response vs control in vivo at 25 mg/kg was found to be 297% and the response vs control in vivo at 50 mg/kg amounted to 297%. Also, in the data set with P388 cancer cell (setting [3]), the responders at 12.5 mg/kg is 33.3%, the responders at 25 mg/kg was 33.3% and the responders at 50 mg/kg is 83.3%. Further, in the data set with P388 cancer cell (setting [4]), the responders at 12.5 mg/kg is 16.7% and the responders at 25 mg/kg was 33.3%.

The molecule `O=NN(CCCl)C(=O)N[C@@H](Cc1ccccc1)C(=O)Nc1nncs1` [J] returned an LD50 in data set [1] of 74 mg/kg. Further, in the data set with P388 cancer cell (setting [2]), the response vs control in vivo at 12.5 mg/kg amounted to 297%, the response vs control in vivo at 25 mg/kg was determined as 297% and the response vs control in vivo at 50 mg/kg is 297%. In the data set with P388 cancer cell (setting [3]), the responders at 12.5 mg/kg is 33.3%, the responders at 25 mg/kg was 83.3% and the responders at 50 mg/kg was 66.7%. Moreover, in the data set on P388 cancer cell (setting [4]), the responders at 12.5 mg/kg was 16.7% and the responders at 50 mg/kg is 16.7%.

In data set [1], `O=NN(CCCl)C(=O)NC1(C(=O)Nc2nncs2)CCCC1` [K] showed an LD50 of 53 mg/kg. In the data set on P388 cancer cell (setting [2]), the response vs control in vivo at 12.5 mg/kg came out at 175%, the response vs control in vivo at 25 mg/kg was found to be 176% and the response vs control in vivo at 50 mg/kg came to 176%.

Turning to `O=NN(CCCl)C(=O)N[C@@H](Cc1c[nH]c2ccccc12)C(=O)Nc1nncs1` [M], in data set [1], the LD50 stood at 73 mg/kg. In the data set on P388 cancer cell (setting [2]), the response vs control in vivo at 25 mg/kg was determined as 294% and the response vs control in vivo at 50 mg/kg was found to be 294%. In the data set with P388 cancer cell (setting [3]), the responders at 25 mg/kg was 83.3% and the responders at 50 mg/kg was 50%. For the same molecule, the responders at 50 mg/kg with P388 cancer cell (setting [4]) is 33.3%. Moreover, the response vs control in vivo at 100 mg/kg with P388 cancer cell (setting [5]) stood at 107%. Besides, in the data set on P388 cancer cell (100 mg/Kg/day, of six mice, read-out: Cure (converted)), the responders at 100 mg/kg was 16.7%.

Regarding `CC(C)[C@@H](NC(=O)N(CCCl)N=O)C(=O)Nc1nncs1` [N], in data set [1], the LD50 turned out to be 68 mg/kg. For the same molecule, in the data set with P388 cancer cell (setting [2]), the response vs control in vivo at 25 mg/kg was 217% and the response vs control in vivo at 50 mg/kg is 99%. Further, in the data set on P388 cancer cell (setting [3]), the responders at 25 mg/kg was 16.7% and the responders at 50 mg/kg was 33.3%.

As for `CC(C)C[C@@H](NC(=O)N(CCCl)N=O)C(=O)Nc1nncs1` [O], in data set [1], the LD50 turned out to be 61 mg/kg. Also, in the data set on P388 cancer cell (setting [2]), the response vs control in vivo at 25 mg/kg turned out to be 190% and the response vs control in vivo at 50 mg/kg turned out to be 217%. Further, the response vs control in vivo at 100 mg/kg in the data set with P388 cancer cell (setting [5]) stood at 188%.
